In experiment [1] the test system is subretinal neovascularization (SNV) in vldlr-/- retina. Kind of experiment: SNV in vldlr-/- knockout mice assay. Format: in vivo. The conditions noted are these: antibody injection. The method, then: SNV in vldlr−/− knockout mice assay. […] Experiments were carried out in very-low-density lipoprotein receptor (vldr) knockout mice to determine the effect of APX3330 on inhibition of SNV development in the vldlr−/− mutant. Each animal received a single intravitreal injection of 1 μl volume of BSS as a vehicle control and the fellow eye received 1 μl of […] APX3330. The final concentration of APX3330 was equivalent to approximately 20 μM in the retina. Quantitative measurement of SNV was carried out one week after the treatment in the whole mount retina after lectin-FITC staining. […] The apparent increase of SNV after antibody injection could be due to foreign protein triggered immune response which has been reported before (Tator et al., 2008). APX3330 reduced the number of SNV at a statistically significant level (p<0.01 in paired t-test). […] The Ape1/Ref-1 inhibitor offers a new approach to control angiogenesis for advanced macular degeneration (AMD) treatment.

The subject of experiment [2] is endothelial cells. Kind of experiment: In vitro tube formation assay. Format: cell-based. The conditions noted are these: dose dependent. The source says:
In vitro tube formation assay.

Experiment [3] concerns RP-B-02 cells. Kind of experiment: Alamar blue monolayer assay RP-B-02. The class given is cell-based, human. The conditions noted are these: 72 h. Here is the method:
(§1) Bladder cancer cell lines (BLCAb001 (RP-B-01) and BLCAb002 (RP-B-02) maintained in RPMI growth medium with 10% FBS were plated at 4,000 cells/well in poly-D-lysine treated 96-well clear bottom black plates and grown overnight in 5% CO2 at 37° C. Cells in monolayer were then treated with increasing concentrations of redox-specific inhibitor APX3330, APX2014 or APX2009 and serially diluted 1:2 in a 5-point dose scheme. For combination studies, cells were treated with both cisplatin and APX compounds to determine efficacy. After 72 hours, fresh RPMI medium with 5% FBS was exchanged, and a fluorescent metabolic indicator, Alamar Blue was added to each well at 10% final concentration. After a 4 hour incubation, plates were read on a Synergy H4 (Bio-Tek) plate reader. For each drug dose, background was subtracted and then further normalized to media alone.
(§2) APE1/Ref-1 inhibition enhances cisplatin's therapeutic effect. Cisplatin is the standard of care for bladder cancer, but many patients' tumors are refractory to this therapy. […] To determine this, PDX lines, RP-B-01 and RP-B-02, as well as established cell line, T24, were treated with increasing concentrations of cisplatin in combination with APX compounds (FIGS. 30A-30C). Cell proliferation was assessed using Alamar blue 72 h after drug treatment.
Background: The colour change of resazurin is a common sign of viable cells or microbes.

In experiment [4] the test system is RP-B-01 cells. Kind of experiment: Alamar blue monolayer assay RP-B-01. Format: cell-based, human. Here is the method:
as §1, §2

Experiment [5] concerns RP-B-01 spheroids. Kind of experiment: 3D spheroid growth assay RP-B-01. The class given is cell-based, human. The conditions noted are these: p<0.01. The source says: (§3) RP-B-01 and RP-B-02 cells were resuspended in normal growth media containing 3% Reduced Growth Factor Matrigel (BD Biosciences) at a cell density of 1,500 and 3,000 cells/well, respectively and plated in ultra-low adherence 96-well plates (Corning).
(§4) Spheroids were allowed to form and then treated on days 4, 8, and 12 following plating with media containing 5% serum, 3% Reduced Growth Factor Matrigel, and APE1/Ref-1 inhibitors. Vehicle control, DMSO, was less than 0.01% of the volume, and was equivalent in each well. On Day 15, Alamar blue reagent (LifeTechnologies) was added to each well (10 μL/well) and incubated for 24 hours.
(§5) In order to mimic tumor growth more accurately in a relevant microenvironment and in a more robust model for predicting response to treatment, a three-dimensional (3D) culture model of patient-derived RP-B-01 and RP-B-02 bladder cancer cells was used. Both RP-B-01 and RP-B-02 cell lines are transitional cell carcinoma staged as T4bN1Mx and T2bN0Mx Grade III tumors, respectively.

Experiment [6] relates to RP-B-01, RP-B-02 and T24 cell lines. Kind of experiment: Alamar blue combination study with cisplatin. The class given is cell-based, human. The conditions noted are these: combined with increasing concentrations of cisplatin, 72 h. Here is the method:
FIGS. 30A-30C. […] RP-B-01, RP-B-02, and T24 cell lines were treated with increasing concentrations of cisplatin in combination with a single dose of either APX2009 or APX2014 as indicated (n=3±SE). Cell proliferation was normalized to Saline control and expressed as Fold Change. Combination index (CI) values calculated with Compusyn for combination of APX inhibitors and cisplatin. CI values indicated mainly additivity (0.95-1.2) to synergy (0.8-0.94).
as §1, with “For each drug dose, background was subtracted and then further normalized to media alone.” left out
APE1/Ref-1 inhibition enhances cisplatin's therapeutic effect. […] Cell proliferation was assessed using Alamar blue 72 h after drug treatment.

In experiment [7] the test system is STAT3. Kind of experiment: STAT3-driven luciferase reporter. Format: cell-based, human. The conditions noted are these: T24 and UC3 cells induced with IL-6, IC50 concentration, 24 h. The method, then: (§6) FIGS. 36A-36H. […] In cytokine-induced T24 and UC3 cells NFκB-driven luciferase (FIG. 36A), STAT3-driven luciferase (FIG. 36B), and AP-1-driven luciferase (FIG. 36C) were quantified and normalized via Renilla following treatment with the corresponding cell growth-inhibitory IC50 concentrations. T24 cells were treated with APX2009 (8.5 μM) and APX2014 (6.5 μM), and UC3 cells were treated with APX2009 (6.1 μM) and APX2014 (4.6 μM) for 24 h. (*-p<0.05 APX treated vs vehicle, n=4). […] In the panels of FIGS. 36F & 36G, co-expression of survivin and APE1/Ref-1 was analyzed in superficial (FIG. 36F) and invasive human bladder tumors (FIG. 36G) in patients, and found nearly universal overlap of positivity in both in human samples. This was also true in cisplatin-refractory patients from the tissue microarray specimens (FIG. 36H).
(§7) The transcriptional activity of NFκB, STAT3, and AP-1 is under redox control by APE1/Ref-1. Therefore, NFκB, STAT3, or AP-1 transcriptional activity was quantified following treatment with APE1/Ref-1 redox inhibitors (FIGS. 36A-36C).
(Reporter assays use an easily measured gene product as a stand-in for the process of interest.)

Experiment [8] deals with NFκB. Kind of experiment: NFκB-driven luciferase reporter. The conditions noted are these: T24 and UC3 cells, IC50 concentration, 24 h. Format: cell-based, human. Here is the method:
as §6, §7

Experiment [9] relates to UC3 cells. Nature of the experiment: Methylene blue cell growth assay UC3. The class given is cell-based. The conditions noted are these: Homo sapiens, read-out: cell growth-inhibitory IC50. Here is the method: (§8) FIGS. 31A & 31B. Treatment with APE1/Ref-1 inhibitors potently blocks bladder cancer cell proliferation and activated Caspase 3/7. […] The IC50 values for FIG. 31A were determined using the methylene blue assay, n=4. […] T24 and UC3 cells were treated with APX2009 and APX2014 at the IC50 and IC90 and monitored over time for activation of capsase 3/7 by an increase in red fluorescence. Time course graphs are shown in FIG. 31B and representative images at 48 hr are shown in FIG. 32A (described more fully below), n=3-4.
as §6, with “36H). […]” for “36H).”

The subject of experiment [10] is T24 cells. Kind of experiment: Methylene blue cell growth assay T24. The class given is cell-based. The conditions noted are these: Homo sapiens, T-24, read-out: cell growth-inhibitory IC50. The method, then: as §8
as §6, with “36H). […]” for “36H).”

Experiment [11] deals with UC3 and T24 cells. Nature of the experiment: Incucyte caspase-3/7 apoptosis assay. The class given is cell-based, human. The conditions noted are these: red fluorescence over time. The method, then: UC3 and T24 cells were plated in 96-well plates at 3,500 cell/well and allowed to attach overnight. Increasing amounts of APX2009 or APX2014 were added to each well along with 1 μM of the caspase reagent (Caspase-3/7 Red, Essen Bioscience) and then the cells were allowed to recover for 2 hours prior to beginning imaging with the Incucyte system (Essen Bioscience). Each well was imaged for phase contrast as well as red fluorescence every 2 hours for 96 hours. The Incucyte software generated movies of the cells following treatment as well as real-time imaging data with red fluorescence normalized to the percent confluency of the well.
To assay for caspase-3/7 mediated apoptosis, the increase in red fluorescence was analyzed over time following the addition of APX2009 and APX2014.

Experiment [12] concerns survivin and Cyclin D1. Kind of experiment: Western blot of survival and proliferation proteins in cells. The conditions noted are these: immunoblot. Format: cell-based, human. Here is the method: as §6
Whole cell extracts were prepared using RIPA (radioimmunoprecipitation) buffer containing protein inhibitors (1:100 PMSF, 1:100 orthovanadate and 1:100 protease inhibitor). Total protein concentration was determined via Lowry or BCA assay. 10-50 μg/well of each lysate was separated by SDS-PAGE using a 12% SDS-polyacrylamide gel. Blots were blocked with 5% nonfat dry milk in 1×TBS for 1 h and incubated overnight with primary antibodies to either APE1/Ref-1 (1:1000 dilution, Novus, NB-100-116), survivin (1:1000, Cell Signaling), Cyclin D1 (1:500, Abcam), PARP-1 (1:1000, Cell Signaling) or GAPDH (1:5000, Cell Signaling). After blots were washed three-six times with TBS-Tween, blots were incubated with HRP-conjugated secondary mouse antibodies (1:5000, Pierce). After washing three-six times with TBS-Tween, blots were visualized by enhanced chemiluminescence (West Pico/West Femto, Pierce).
For further confirmation of a decrease in NFκB and STAT3 transcriptional activity, levels of survivin and Cyclin D1 were examined Both survivin and Cyclin D1 are known to be downstream targets of NFκB and STAT3. […] However, unlike APE1/Ref-1, survivin expression was primarily nuclear in both urothelial confined and invasive lesions.
(In general: A western blot detects proteins with antibodies after separation by electrophoresis.)

The test system of experiment [13] is SW780, T24, UC3 cell lines. Kind of experiment: Methylene blue cell growth assay, bladder cancer cell panel. The class given is cell-based, human. The method, then:
as §8
Bladder cancer cell proliferation was inhibited and apoptosis was induced by potent, selective redox inhibitors of APE1/Ref-1.

The subject of experiment [14] is bladder cancer cells. Kind of experiment: BrdU incorporation assay in cultured cells. Format: cell-based. The conditions noted are these: IC50 concentration, 24 hours; control 11.2%±0.84. The method, then:
To determine the proliferation rate of cells in response to APE1/Ref-1 redox inhibitors, cells were grown in the culture conditions described above and treated with inhibitors as described above, in chamber slides. After 24 hours in culture with inhibitors or vehicle, all cells were treated with 3.1 μg/ml BrdU (in sterile PBS; 0.1%) for one hour. Cells were fixed and permeablized with 4% paraformaldehyde and stained for BrdU incorporation with the antibody and methodology described in the Roche BrdU labeling Kit, (Risch-Rotkreuz, Switzerland), using secondary antibodies. Positive cells were captured on a Leica 6000 fluorescent microscope and were quantified relative to Hoechst positive nuclei (total live cells).
To further characterize this effect, it was analyzed whether this reduced cell number was due to decreases in proliferation, increases in apoptosis, or both.

In experiment [15] the test system is RP-B-02 spheroids. Kind of experiment: 3D spheroid growth assay RP-B-02. Format: cell-based, human. The conditions noted are these: p<0.05.
Description: as §3, §4, §5

pIC50: −log10 of the molar value.

As to “AVASTIN®: VEGF antibody [reference compound]”, in [1], the “inhibition to the number of SNV” value is “neither AVASTIN® (VEGF antibody) nor bFGF antibody treatment showed any sign of inhibition”. Moreover, the “formation of blood-vessel-like tubules” value in experiment [2] is reported as “prevented formation of blood-vessel-like tubules”.
As to `N.N.[Cl][Pt][Cl]` [cisplatin], the pIC50 in experiment [3] is 6.30; in experiment [4] (RP-B-01 cells, 72 h) it was 5.84. Also, in [4], the “resistance of RP-B-01 relative to RP-B-02 cells” value was “at least 3 fold”.
For the compound `CCC/C(=C\C1=C(OC)C(=O)c2ccccc2C1=O)C(=O)NOC` [APX2014], the “relative sensitivity of RP-B-01 cells in 3D culture” value in [5] is reported as “significantly more sensitive to APX2014 than APX2009”. The “cellular proliferation when combined with cisplatin” value in experiment [6] is “further reduction in cellular proliferation”. In [7], the STAT3 transcriptional activity result is “reduced the transcriptional activity of NFκB and STAT3”. The NFκB transcriptional activity entry in experiment [8] is “reduced the transcriptional activity of NFκB and STAT3”. For the same compound, the pIC50 in experiment [9] is 5.34. Moreover, the pIC50 in experiment [10] was 5.19. Besides, the caspase-3/7 activation result in [11] was “dose-dependent increase in caspase activation”. For the same compound, in experiment [12], the “expression of c-Myc, Bcl-2, Bcl-XL” value was “No change in expression”; the “expression of survivin and Cyclin D1” value is reported as “significantly down-regulated”. In addition, the “fold lower IC50 than APX3330” value in [13] is reported as 11 fold. Besides, the BrdU-positive cells in experiment [14] is 7.2%±0.49. Further, the “potency in RP-B-02 cells in 3D culture relative to APX3330” value in [15] is “more potent in the RP-B-02 cells than parent compound APX3330”.

As usually defined, the pIC50 is the IC50 on a negative log10 scale, so that one unit is a factor of ten.
